Test results as given in PMC7560827, “Immunodominant proteins P1 and P40/P90 from human pathogen Mycoplasma pneumoniae” (Nature Communications, 2020).

Key:
P40/P90N [1] = target: T1, P40/P90N (Mycoplasmoides pneumoniae, UniProt Q50341)
T1 construct: gene orf6

P40/P90N [2] = target: T1, P40/P90N; remark: listed apart in the source

SMILES | X-ray crystal structure, 2.8 Å (P40/P90N [1]) | X-ray crystal structure, 3.2 Å (P40/P90N [2])
CC(=O)N[C@H]1[C@H]([C@H](O)[C@H](O)CO)O[C@@](OC[C@H]2O[C@@H](O[C@H]3[C@H](O)[C@@H](O)C(O)O[C@@H]3CO)[C@H](O)[C@@H](O)[C@H]2O)(C(=O)O)C[C@@H]1O (some centres unmarked) [6SL] | 6TM0 for the 6SL complex | 
CC(=O)N[C@H]1[C@H]([C@H](O)[C@H](O)CO)O[C@@](O[C@H]2[C@@H](O)[C@@H](CO)O[C@@H](O[C@H]3[C@H](O)[C@@H](O)C(O)O[C@@H]3CO)[C@@H]2O)(C(=O)O)C[C@@H]1O (some centres unmarked) [3SL] |  | 6TLZ for the 3SL complex
